Results reported in PubChem BioAssay AID488890 (Southern Research Specialized Biocontainment Screening …, 2010).
Inconclusive results are not listed. Calls of active or inactive are those of the source. How the calls were made is not given here.

Each compound was assayed on Mycobacterium tuberculosis non-replicating, growth inhibition (assay: growth inhibition of non-replicating M. tuberculosis (AID 488890)).
`CC(=O)Oc1c(C)cc(Cl)cc1C(=O)Nc1ccc([N+](=O)[O-])cc1Cl` was tested, and the IC50 was 2.71 µM.
For `CCOC(=O)C(Nc1ccc2ccccc2c1)C(=O)OCC`, the IC50 was 7.7 µM.
With `c1ccc(-c2noc(CC3CCCCC3)n2)nc1` the IC50 was 1.18 µM.
For `CCOC(=O)CN1NC2(CCCC(C)C2)NC1=S` (stereo not drawn), the IC50 was 11.9 µM (inactive).
For `CC(C)(C)CC(=O)NC(=S)NCc1ccco1`, the IC50 was 4.56 µM.
Compound `O=C(N/N=C/c1ccccn1)c1cc([N+](=O)[O-])cc([N+](=O)[O-])c1` has an IC50 of 9.98 µM.
In the case of `CN(C)c1nc(-c2ccccn2)nnc1-c1ccccc1`, the IC50 is reported as 9.74 µM.
For `Cc1ccccc1OCCNc1cc(N2CC(C)NC(C)C2)ccc1[N+](=O)[O-]` (stereo not drawn), the IC50 was 10.8 µM (inactive).
For `Cc1ccccc1C1=N/C(=C/c2cccnc2)C(=O)O1`, the IC50 was 19.9 µM (inactive).
With `CC1=NN(c2ccccc2)C(=O)C1C(=O)c1ccccc1` (stereo not drawn) the IC50 was 15.9 µM (inactive).
In the case of `Cc1ccc(-n2cc(CNCCc3ncc(C)[nH]3)c(-c3ccc(F)cc3)n2)cc1`, the IC50 is reported as 17.3 µM (inactive).
For `COc1ccc(C(=O)Cn2c(C)nc([N+](=O)[O-])c2Br)cc1`, the IC50 was 19.9 µM (inactive).
`CC1CCN(C(=O)COC(=O)c2cc3ccccc3cc2O)CC1` showed an IC50 of 2.04 µM.
With `Cc1cc(S(=O)(=O)c2ccc([N+](=O)[O-])cn2)ccc1Br` the IC50 was 0.15 µM.
`CC1(C(=O)OCC(=O)Nc2nnc(-c3ccccc3)o2)CC1(Cl)Cl` (stereo not drawn) gave an IC50 of 3.19 µM.
Work on `O=C(COC(=O)c1ccc(Cl)s1)c1ccc[nH]1` yielded an IC50 of 6.38 µM.
`Cc1nn(-c2nc3ccccc3[nH]2)c(N)c1-c1ccc(Cl)cc1` gave an IC50 of 4.88 µM.
`Cc1ccc(C(=O)CCNc2ccc(Br)cc2)o1` gave an IC50 of 1.84 µM.
`COc1cc(C(=O)N/N=C/c2cc([N+](=O)[O-])cs2)cc(OC)c1OC` showed an IC50 of 3.58 µM.
`CCOc1ccc2nc(NC(=O)c3ccccn3)sc2c1` gave an IC50 of 1.03 µM.
For `Nc1nonc1C(=O)NCCN=Cc1cc(Cc2ccccc2)cc(Br)c1O`, the IC50 was 5.63 µM.
Work on `O=C(N/N=C/c1ccc(OC(=O)c2ccco2)cc1)c1ccccn1` yielded an IC50 of 6.05 µM.
For `Cc1cccc(NC(=O)c2ccc(OC3CSC3)cc2)c1`, the IC50 was 28.7 µM (inactive).
Work on `Cn1nnc(NC(=O)COc2ccc(C3CCCCC3)cc2)n1` yielded an IC50 of 1.68 µM.
`O=C(C/C=N\OCc1ccc([N+](=O)[O-])cc1)Nc1ccccc1` gave an IC50 of 4.57 µM.
`COc1ccc(COC(=O)CCNC(=O)c2ccc(Cl)cc2)cc1` was tested, and the IC50 was 8.25 µM.
In the case of `O=C(N/N=C\C=C\c1ccco1)c1cncc(Br)c1`, the IC50 is reported as 34.4 µM (inactive).
With `O=C(N/N=C/C=C/c1ccccc1)c1cccs1` the IC50 was 45.2 µM (inactive).
With `O=C(NC(=S)Nn1cnc2c(cnn2-c2ccccc2)c1=O)c1ccccc1` the IC50 was 22.2 µM (inactive).
With `O=C(COC(=O)CC1CCCC1)Nc1ccc(OC(F)F)cc1` the IC50 was 10.8 µM (inactive).
For `O=C(Nc1nnc(COc2ccc(Cl)cc2)s1)c1ccco1`, the IC50 was 21.4 µM (inactive).
`COc1ccc(C(=O)N/N=C(\c2ccccc2)c2ccccn2)cc1` was tested, and the IC50 was 3.27 µM.
Compound `CC1=NN(C(=O)c2ccccc2)C(O)(c2ccc(Br)cc2)C1` (stereo not drawn) has an IC50 of 0.62 µM.
For `O=C(N/N=C/c1cc(Br)cc(Cl)c1O)c1ccc2c(c1)OCO2`, the IC50 was less than 0.1 µM.
With `Fc1cccc2sc(N3CCCC3)nc12` the IC50 was 23.1 µM (inactive).
In the case of `O=C1NC(=O)C(=Cc2ccc(-c3ccc(Cl)cc3)o2)C(=O)N1`, the IC50 is reported as less than 0.1 µM.
In the case of `CC(C)c1ccc(N2C(=O)NC(=O)/C(=C/C=C/c3ccco3)C2=O)cc1`, the IC50 is reported as 8.65 µM.
For `O=C1/C(=C/c2ccco2)CCC1C1CCCC1` (stereo not drawn), the IC50 was 13.8 µM (inactive).
`Cc1cc(NCc2ccccn2)n2ncc(-c3ccccc3)c2n1` was tested, and the IC50 was 1.93 µM.
`O=C1CC(N2CCN(c3ccccc3)CC2)C(=O)N1CCc1ccccc1` (stereo not drawn) was tested, and the IC50 was 14 µM (inactive).
Compound `N#Cc1nc(-c2cccs2)oc1NCCc1ccccc1` has an IC50 of 4.77 µM.
Compound `Cn1cccc1/C=N/NC(=O)c1ccncc1` has an IC50 of 1.96 µM.
With `CN(C)CCCn1c(=O)n(CCc2ccccc2)c(=O)c2c3c(sc21)CCCCC3` the IC50 was 16.9 µM (inactive).
With `Cc1ccc2nc(N(CCCN(C)C)C(=O)c3ccc4c(c3)CCCC4)sc2c1` the IC50 was 14.5 µM (inactive).
`CCOC(=O)c1ccc(-c2ccc(C(=O)Nc3cccnc3)o2)cc1` was tested, and the IC50 was 0.84 µM.
For `Cc1ccc(-n2cc(CNCCc3cscn3)c(-c3ccc(F)cc3)n2)cc1`, the IC50 was 10.9 µM (inactive).
`O=C(CCc1ccccc1F)N1CCN(c2ccccc2)CC1` gave an IC50 of 2.08 µM.
`Cc1ccc(NC(=O)CCSc2nnc(Cc3ccccc3)o2)cc1` showed an IC50 of 2.05 µM.
With `O=C(COc1ccc(Cl)cc1)OCC(=O)N1CCCc2ccccc21` the IC50 was 12.9 µM (inactive).
Compound `CN(C)c1ccc(/C=C2\N=C(C(C)(C)C)OC2=O)cc1` has an IC50 of 9.11 µM.
`O=C(COc1ccccc1)NNc1nc2ccccc2s1` was tested, and the IC50 was 34.2 µM (inactive).
With `O=C(c1ccc(-c2ccc([N+](=O)[O-])cc2)o1)N1CCCCCCC1` the IC50 was 11.6 µM (inactive).
Compound `CCn1c(=O)c(C(=O)Nc2ncccc2C)c(O)c2ccccc21` has an IC50 of 9.94 µM.
With `CCOc1ccc(NC(=O)CCC(=O)N/N=C/c2ccc([N+](=O)[O-])s2)cc1` the IC50 was 8.29 µM.
Work on `O=C(OCC#CCSc1nc2ccccc2o1)c1ccco1` yielded an IC50 of 5.75 µM.
In the case of `O=[N+]([O-])c1cc(N=Nc2ccc3ccccc3c2)ccc1O`, the IC50 is reported as 10.2 µM (inactive).
In the case of `COc1ccc2oc(=O)c(/C(C)=N/NC(=O)c3ccncc3)cc2c1`, the IC50 is reported as 0.84 µM.
`NCCOc1ccc(C23CC4CC(CC(C4)C2)C3)cc1` was tested, and the IC50 was 16 µM (inactive).
In the case of `O=C(Nc1nc(-c2cc(F)ccc2F)cs1)c1ccccn1`, the IC50 is reported as 2.28 µM.
In the case of `Cc1nc2ccc(NC(=O)c3ccc([N+](=O)[O-])cc3[N+](=O)[O-])cc2s1`, the IC50 is reported as 7.88 µM.
With `CCCCCn1c(=O)c(C(=O)Nc2cnccn2)c(O)c2ccccc21` the IC50 was 2.55 µM.
Compound `Cc1ccc(/C=N/NC(=O)c2ccncc2)o1` has an IC50 of 2.07 µM.
`O=C(NCc1ccccc1)c1cc2ccccc2oc1=O` was tested, and the IC50 was 43.8 µM (inactive).
For `O=C(NC12CC3CC(CC(C3)C1)C2)c1ccc([N+](=O)[O-])o1`, the IC50 was 5.44 µM.
`CC(NCCCOc1cccc2ccccc12)c1ccccc1` (stereo not drawn) was tested, and the IC50 was 15.5 µM (inactive).
`COC(=O)COc1ccc(-c2ccccc2)cc1C=O` was tested, and the IC50 was 8.95 µM.
With `CCOc1ccc(C(=O)C(CN2CCOCC2)c2ccccc2)cc1` (stereo not drawn) the IC50 was 3.62 µM.
In the case of `COc1cc(OC)cc(-c2nc3ccccc3c(=O)o2)c1`, the IC50 is reported as 2.33 µM.
Work on `Fc1ccc(-c2ccc(CNCc3ccccn3)o2)cc1Cl` yielded an IC50 of 8.76 µM.
`CN=C1S/C(=C\c2ccc(OCC(=O)OC)c(OC)c2)C(=O)N1C` was tested, and the IC50 was 16.5 µM (inactive).
For `C=C1Cn2c(nnc2-c2ccc(Cl)cc2)S1`, the IC50 was 12.8 µM (inactive).
Compound `CCOc1cccc(CNCCc2c(C)[nH]c3ccc(OC(F)(F)F)cc23)c1O` has an IC50 of 9.79 µM.
In the case of `Cc1cc(=O)[nH]c(-n2nc(C)cc2C)n1`, the IC50 is reported as 4.88 µM.
For `CCN(CC)S(=O)(=O)c1ccc(C(=O)OCn2nnc3ccccc3c2=O)cc1`, the IC50 was 15.4 µM (inactive).
For `O=C(NCc1ccc(F)cc1)c1ccc(Br)o1`, the IC50 was 0.51 µM.
Work on `CN1CCC(O)(c2cccs2)C(C(=O)c2cccs2)C1` (stereo not drawn) yielded an IC50 of 2.35 µM.
For `O=C(CNC(=O)c1ccccc1F)OCc1csc(-c2ccccc2)n1`, the IC50 was 15.2 µM (inactive).
With `Cc1ccccc1OCCC(=O)OCC(=O)NNC(=O)c1cccs1` the IC50 was 21.4 µM (inactive).
In the case of `CCOCCOC(=O)COc1ccc2c(-c3ccccc3)cc(=O)oc2c1`, the IC50 is reported as 0.98 µM.
For `CC12CC3CC(C)(C1)CC(C(=O)N1CCCC1)(C3)C2`, the IC50 was 24 µM (inactive).
Work on `O=C(NCc1nnc(SC/C=C/c2ccccc2)o1)c1ccco1` yielded an IC50 of 4.25 µM.
`COC(=O)COc1ccc(S(=O)(=O)N2CCN(c3ccccc3F)CC2)cc1` was tested, and the IC50 was 27.9 µM (inactive).
`O=C(Oc1ccccc1Cl)c1ccc2c(=O)n3c(nc2c1)CCC3` was tested, and the IC50 was 2.28 µM.
In the case of `COc1ccccc1C(=O)OCC(=O)Nc1ccc(Cl)cn1`, the IC50 is reported as 16.2 µM (inactive).
In the case of `CCOC(=O)c1ccc(NC(=O)CCSCCc2ccccn2)cc1`, the IC50 is reported as 23.4 µM (inactive).
In the case of `O=C(N/N=C/c1ccc(O)cc1)c1cccc(C(F)(F)F)c1`, the IC50 is reported as 16 µM (inactive).
Compound `Cc1nn2c(NCc3ccccn3)cc(C(C)C)nc2c1-c1ccccc1` has an IC50 of 1.44 µM.
Work on `CC(C)C1O/C(=N/C(=O)Nc2ccc(Cl)c(Cl)c2)NC1=O` (stereo not drawn) yielded an IC50 of 4.76 µM.
In the case of `Cc1ccc(NC(=O)C2COc3ccccc3O2)nc1` (stereo not drawn), the IC50 is reported as 6.26 µM.
In the case of `Cc1ccc(C2=NN(C)c3nc4ccccc4n3C2)cc1`, the IC50 is reported as 18.7 µM (inactive).
With `CCOc1ccccc1OC(=O)c1cc2ccccc2oc1=O` the IC50 was 21.5 µM (inactive).
For `CCCc1cc(C(=O)Nc2ccccc2SC)no1`, the IC50 was 12.1 µM (inactive).
With `O=c1cc2[nH]c3ccccc3c(=O)n2nc1-c1ccccc1` the IC50 was 7.1 µM.
`O=C(CN1CCN(c2ccccc2)CC1)Nc1nnc(-c2ccccc2)s1` was tested, and the IC50 was 9.53 µM.
With `Cc1ccc(N=N/C(=C\O)C(=O)c2ccncc2)cc1` the IC50 was 10.1 µM (inactive).
For `CCN(CC)c1ccc2cc(C(=O)NCc3ccc(F)cc3)c(=N)oc2c1`, the IC50 was 1.62 µM.
With `Cc1nc2ccc(OC(=O)c3ccccc3)cc2s1` the IC50 was 20.9 µM (inactive).
With `COc1ccc(NC(=O)COc2ccc3c(c2)CCC3)cc1` the IC50 was 4.54 µM.
`O=C(NC(=S)NNC(=O)[C@H]1C[C@@H]1c1ccccc1)c1cccc(F)c1` showed an IC50 of 6.69 µM.
With `O=C(Cc1ccc([N+](=O)[O-])cc1)N/N=C/c1ccc([N+](=O)[O-])o1` the IC50 was 21.8 µM (inactive).
Work on `CCOC(=O)Cn1c(-c2ccccc2)ccc(C#N)c1=O` yielded an IC50 of 4.71 µM.
`CCOC(=O)COc1ccc(/C=C2\NC(=S)N(CC)C2=O)cc1` gave an IC50 of 7.01 µM.
Work on `CCOc1ccc2ccccc2c1/C=N/NC(=O)c1ccncc1` yielded an IC50 of 0.58 µM.
`O=C(C#Cc1ccccc1)c1ccco1` gave an IC50 of 0.43 µM.
With `CCOC(=O)Cc1nc2cc(Cl)ccc2o1` the IC50 was 32.3 µM (inactive).
In the case of `NC(=O)N/N=C/c1ccccc1OC(=O)c1cc2ccccc2oc1=O`, the IC50 is reported as 3.77 µM.
`O=C(COC(=O)c1ccccn1)Nc1cccc(Cl)c1Cl` gave an IC50 of 6.11 µM.
`CC1(O)CC(c2ccc(Cl)cc2)=NN1C(=O)c1ccc([N+](=O)[O-])cc1` (stereo not drawn) gave an IC50 of 0.18 µM.
`O=C(Nc1nccs1)c1ccc(COc2ccc(Cl)cc2)o1` was tested, and the IC50 was 10.4 µM (inactive).
With `CCCCNC(=O)Nc1nnc(-c2ccc(OCC)cc2)o1` the IC50 was 21.9 µM (inactive).
Compound `Cc1ccc2cc3c(nc2c1)OCC3` has an IC50 of 6.8 µM.
`c1ccc(Cc2nnc(-c3ccccc3)o2)cc1` gave an IC50 of 0.19 µM.
`COc1cc(C(=O)CCN2CCC(c3ccccc3)C2)cc(OC)c1OC` (stereo not drawn) gave an IC50 of 6.41 µM.
With `Cc1ccc(CNC(=O)c2cnccn2)cc1` the IC50 was 1.36 µM.
`CCCn1c(CNc2ccccc2O)nc2ccccc21` was tested, and the IC50 was 3.3 µM.
`O=C(N/N=C/c1coc2ccccc2c1=O)c1ccc(Cl)cc1` gave an IC50 of 0.97 µM.
In the case of `O=c1c(=Nc2ccccc2O)c(=O)c2ccccc12`, the IC50 is reported as 2.73 µM.
With `O=S1(=O)C=C(Sc2nc3cc(Cl)ccc3o2)c2ccccc21` the IC50 was 0.3 µM.
